Test results as given in ChEMBL document CHEMBL1156829 (Proc Natl Acad Sci U S A, 2008).

Assays:
[1] = test system: Plasmodium falciparum; experiment: NOVARTIS: Inhibition of Plasmodium falciparum 3D7 (drug-susceptible) proliferation in erythrocyte-based infection assay; assay type: functional, organism-based; settings: Plasmodium falciparum, 3D7
[2] = NOVARTIS: Cytotoxicity against human hepatocellular carcinoma cell line (Huh7); assay type: toxicity, cell-based, Huh-7; settings: Huh7 cells (hepatocellular carcinoma cell line)
[3] = test system: Plasmodium falciparum; experiment: NOVARTIS: Inhibition of Plasmodium falciparum W2 (drug-resistant) proliferation in erythrocyte-based infection assay; assay type: functional, organism-based; settings: Plasmodium falciparum, W2; read-out: EC50

| SMILES | EC50 [1] [nM] | CC50 [2] [nM] | EC50 [3] [nM] |
| --- | --- | --- | --- |
| CCOC(=O)C1=C(C)NC2=C(C(=O)C(C(=O)OCC)C(c3cccc(OC)c3)C2)C1c1ccc([N+](=O)[O-])cc1 (stereo not given) | 54.2 | > 54600 | 37.2 |
| Fc1ccc(-c2c[n+](Cc3ccc(Cl)cc3)c3n2CCC3)cc1 | 1140 | > 100000 | 370 |
| CCOC(=O)C1=C(C)NC2=C(C(=O)C(C(=O)OCC)C(c3ccccc3OC)C2)C1c1ccc(Cl)cc1 (stereo not given) | 5420 | > 100000 | 1000 |
| COc1cccc(CNc2cc(C(=O)NCCNC(C)=O)cc(S(=O)(=O)N(C)C)c2)c1OC | > 431 | > 10000 | > 1210 |
| CN(C)c1ccc(-c2cc(-c3ccccc3)[s+]c(-c3ccccc3)c2)cc1 | 318 | 1690 | 73.7 |
| CCOc1ccc(Nc2nc(NCc3ccccc3)c3ccccc3n2)cc1 | 88.2 | 5670 | 170 |
| Nc1ccc(Nc2ccc(N)cc2)cc1 | 319 | > 10000 | 711 |
| Cc1cccc2cc(CNC3CCOC(C)(C)C3)c(N3CCCC3)nc12 (stereo not given) | 21.4 | 39000 | 39.7 |
| CCC(c1nc2ccccc2c(=O)n1-c1cccc(Cl)c1)N(CCc1ccccc1)C(=O)c1ccc(F)cc1 (stereo not given) | 267 | 656 | 69 |
| c1cc(-c2nc3ccccc3[nH]2)nc(-c2nc3ccccc3[nH]2)c1 | 686 | 47500 | 916 |
| C=CC(C)(CCC=C(C)C)c1ccc2c3c(c[nH]c13)CC(CO)NC(=O)C(C(C)C)N2C (stereo not given) | 552 | > 10000 | 197 |
| CCOc1ccc2nc(NCCNC(=O)c3ccco3)c(C)cc2c1 | > 1250 | > 10000 | > 279 |
| Clc1cccc(CSc2nc(Nc3ccc4c(c3)OCO4)c3ccccc3n2)c1 | 1170 | > 82900 | 2790 |
| C1CCC(CN2CCc3nc(N4CCCCC4)sc3C2)CC1 | 254 | > 10000 | 83.2 |
| CCOC(=O)c1ccc(N(C(=O)CSCC(=O)Nc2cc(C)on2)C(C(=O)NC2CCCCC2)c2ccc(O)c(O)c2)cc1 (stereo not given) | > 316 | > 10000 | > 1250 |
| O=C(Nc1ccc2oc(-c3cccc4ccccc34)nc2c1)c1ccc([N+](=O)[O-])o1 | 5060 | > 100000 | 2650 |
| OC1=C2C(=Nc3ccccc3SC2c2ccccc2)c2ccccc21 (stereo not given) | 46.7 | 27100 | 112 |
| COc1ccc(CNC2CCN(CCN3CCCCC3)C(c3ccc(OCc4ccccc4)cc3)C2)cc1OC (stereo not given) | 662 | 5060 | 447 |

| SMILES | EC50 [1] [nM] | CC50 [2] [nM] | EC50 [3] [nM] |
| --- | --- | --- | --- |
| Cc1ccn2c(NC(C)(C)CC(C)(C)C)c(-c3ccccc3OC(=O)C34CC5CC(CC(C5)C3)C4)nc2c1 | 788 | > 10000 | 214 |
| Cc1ccn2c(NC(C)(C)CC(C)(C)C)c(-c3ccccc3OC(=O)c3ccccc3C)nc2c1 | 757 | > 10000 | < 9.03 |
| CCCCCCCCCCCCOCCCNC(=O)c1cccc(N)c1 | 1570 | > 10000 | > 1560 |
| Cc1cccc(CSc2nnc(C(Cc3ccccc3)NC(=O)C3CCCCC3)n2-c2ccc(Cl)cc2Cl)c1 (stereo not given) | 1240 | > 10000 | 1430 |
| CCOC(=O)C1=C(C)NC2=C(C(=O)CC(c3ccc(OC)c(OC)c3)C2)C1c1cccc(C)c1 (stereo not given) | 236 | > 100000 | 57.2 |
| FC(F)(F)c1cccc(Nc2nc3nonc3nc2Nc2ccc(Cl)cc2)c1 | > 1310 | > 10000 | 1610 |
| C=CC1CN2CCC1CC2[C@H](O)c1ccnc2ccc(O)cc12 (stereo not given in full) | 404 | > 100000 | 5720 |
| CCC1=[N+](C)c2cccc3cccc(c23)N1C | 958 | > 100000 | 739 |
| CN(C)c1ccc(C=C2SC(=N)N(c3nccs3)C2=O)cc1 | 5050 | > 100000 | 1830 |
| O=C(NN=Cc1ccc(O)c(O)c1)/C(=C/c1ccccc1)NC(=O)c1ccccc1 | > 1250 | > 10000 | > 1110 |
| Cc1ccc2nc(Nc3nc(O)c4ccccc4n3)nc(C)c2c1 | 575 | > 10000 | > 1620 |
| C=CCn1c(SCC(=O)c2cc(C)n(-c3ccccc3F)c2C)nc2sc3c(c2c1=O)CCCC3 | > 1250 | > 10000 | > 180 |
| CCCCCCCCC(=O)N(C)CCCNc1ccnc2cc(Cl)ccc12 | 321 | > 10700 | 196 |
| COC(CNc1cc(-c2ccccn2)nc(-c2ccccn2)n1)OC | 336 | > 10000 | 633 |
| Cc1ccnc(Nc2nc(-c3c(C)nc4sccn34)cs2)c1 | 1500 | > 73400 | 753 |
| CCC(Sc1nc(C)cc(-c2ccccc2)n1)C(=O)Nc1cccc2ccccc12 (stereo not given) | > 1250 | > 10000 | 496 |
| CN(Cc1ccccc1)C(=O)CCNS(=O)(=O)c1cc(Br)cnc1N | 614 | > 10000 | 355 |
